# Measured values: paper PMC10974768 (Toxins, 2024)
# Where two headings read alike, the source gives them in different places.
# Key:
# [1] = system: CYP2C8; conditions: cited from earlier work
# [2] = system: CYP3A4; conditions: read-out: IC50 for CYP3A4; human liver microsomes; cited from earlier work
# [3] = system: CYP2E1; assay: in vitro; conditions: chicken, pH 7.4
# Procedure: (§1) A cocktail-approach for elucidating the metabolites profiling and CYP450 inhibition was conducted as in Lin et al. with minor changes. The incubation mixture contained 50 μL of 0.2 mg/mL of CLM, 10 μL of 0.1 M phosphate buffer (pH 7.4), 40 μL of 1 mM NADPH and six probe substrates with a total volume of 200 μL. The specific probe substrates used for each CYP450 isoenzyme in the incubation mixture were as follows: PH (CYP1A2), BP (CYP2B6), CLN (CYP2E1), TBD (CYP2C9), CAN (CYP2A6), and MDZ (CYP3A4). Probes substrates were dissolved in methanol as stock solution (1 mg/mL). All of them were diluted to the final concentrations (see Supplemental Materials) with incubation buffer and the percentage of organic solvent in the final incubation volume was below 1% (v/v). Briefly, the mixture was preincubated in a thermoshaker (Biosan, Geraardsbergen, Belgium) for 5 min at 37 °C prior to the initiation of the reaction with NADPH.4Na. After incubation, the mixture was terminated by 400 μL ice-cold acetonitrile. […] A volume of 5 µL of supernatant was analysed using UHPLC-MS/MS.
# [4] = system: CYP2B6; assay: in vitro; conditions: chicken, microsomes, pH 7.4
# Procedure: as §1
# [5] = system: CYP1A2, CYP2B6, CYP2E1, CYP2C9, CYP2A6, CYP3A4 (summary bound over all); assay: in vitro; conditions: chicken, microsomes, pH 7.4
# Procedure: as §1
# [6] = system: CYP1A2; assay: in vitro; conditions: chicken, microsomes, pH 7.4
# Procedure: as §1
# [7] = system: CYP2C9; assay: in vitro; conditions: chicken, microsomes, pH 7.4
# Procedure: as §1
# [8] = system: CYP2A6; assay: in vitro; conditions: chicken, microsomes, pH 7.4
# Procedure: as §1
# [9] = system: CYP3A4; assay: in vitro; conditions: chicken, pH 7.4
# Procedure: as §1
# [10] = in vivo; format: in vivo, broiler chickens (Ross 308); conditions: for TIA concentration in chicken plasma, Treatment group: AFB1 diet 20 µg/kg feed for 2 weeks
# [11] = system: broilers; conditions: AFB1 and TIA co-administrated
# [12] = system: CYP2C8; conditions: cited from earlier work; remark: listed apart in the source
# [13] = chickens exposed to AFB1 (750 µg/kg); nonsignificant; cited from earlier work
# [14] = system: CYP3A; conditions: chickens; doses of 25 and 125 mg/kg body weight; cited from earlier work
# [15] = system: CYP1A, CYP2A, CYP2C, CYP2B, CYP2E and CYP3A in porcine liver microsomes; conditions: concentration of 3 μM; cited from earlier work
# [16] = AFB1 diet 20 µg/kg feed for 2 weeks vs control, TIA oral 25 mg/kg BW, p < 0.01
# [17] = TIA oral bolus 25 mg/kg BW, chickens not pretreated with AFB1 (control feed for 2 weeks), n = 9, mean ± SD
smiles,measurement,setting,value
CC1(C)S[C@@H]2[C@H](NC(=O)[C@H](N)c3ccc(O)cc3)C(=O)N2[C@H]1C(=O)O [Amoxicillin],IC50,[1],830 µM
"C=C[C@]1(C)C[C@@H](OC(=O)CSCCN(CC)CC)[C@]2(C)[C@H](C)CC[C@]3(CCC(=O)[C@H]32)[C@@H](C)[C@@H]1O [TIA, tiamulin]",IC50,[2],1.6 µM
same,IC50,[3]; microsomes,> 40 µM
same,IC50 for CYP2E1,[3],47.6 µM
same,IC50,[4],> 40 µM
same,IC50,[5],> 7.6 µM
same,IC50,[6],> 40 µM
same,IC50,[7],> 40 µM
same,IC50,[8],7.6 µM
same,IC50,[9]; microsomes,> 40 µM
same,IC50 for CYP3A4,[9],334.2 µM
same,"TIA concentration in chicken plasma, Treatment group","[10]; 0.25 h after oral TIA 25 mg/kg BW, mean ± SD",134 ± 71.5 ng/mL
same,"TIA concentration in chicken plasma, Treatment group","[10]; 0.50 h after oral TIA 25 mg/kg BW, mean ± SD",83.7 ± 40.2 ng/mL
same,"TIA concentration in chicken plasma, Treatment group","[10]; 1 h after oral TIA 25 mg/kg BW, mean ± SD",76.7 ± 40.2 ng/mL
same,"TIA concentration in chicken plasma, Treatment group","[10]; 2 h after oral TIA 25 mg/kg BW, mean ± SD",91.0 ± 61.2 ng/mL
same,"TIA concentration in chicken plasma, Treatment group","[10]; 3 h after oral TIA 25 mg/kg BW, mean ± SD",73.6 ± 32.9 ng/mL
same,"TIA concentration in chicken plasma, Treatment group","[10]; 4 h after oral TIA 25 mg/kg BW, mean ± SD",29.6 ± 13.8 ng/mL
same,"TIA concentration in chicken plasma, Treatment group","[10]; 6 h after oral TIA 25 mg/kg BW, mean ± SD",10.8 ± 3.6 ng/mL
same,"TIA concentration in chicken plasma, Treatment group","[10]; 8 h after oral TIA 25 mg/kg BW, mean ± SD",10.4 ± 3.7 ng/mL
same,"TIA concentration in chicken plasma, Treatment group","[10]; 12 h after oral TIA 25 mg/kg BW, mean ± SD",9.60 ± 3.0 ng/mL
same,"TIA concentration in chicken plasma, Treatment group","[10]; 24 h after oral TIA 25 mg/kg BW, mean ± SD",9.50 ± 3.3 ng/mL
same,increase of Cmax of TIA by AFB1 exposure,"[10]; AFB1 diet 20 µg/kg feed for 2 weeks vs control, TIA oral 25 mg/kg BW",155%
same,CL_F_obs of TIA in AFB1-exposed group lower than in the control group,[10]; [16],63%
same,Vd_F_obs of TIA in AFB1-exposed group lower than in the control group,[10]; [16],57%
same,increase of AUClast of TIA by AFB1 exposure,[10]; [16],167%
same,"Tmax, Control",[10]; [17],0.4 ± 0.2 h
same,"Vd_F_obs, Control",[10]; [17],715.1 ± 228.45 L/kg
same,"Vd_F_obs, Treatment","[10]; TIA oral bolus 25 mg/kg BW, chickens pretreated with AFB1 contaminated diet (20 µg/kg feed for 2 weeks), n = 8, mean ± SD",407.1 ± 142.5 L/kg
same,AUC(0-t),"[10]; male, Ross 308, in vivo, po, 25 mg/kg, TIA oral bolus 25 mg/kg BW, chickens not pretreated with AFB1 (control feed for 2 weeks), last sampling point 180 h, n = 9, mean ± SD, read-out: AUClast, Control",294 ± 63.3 ng·h/mL
same,AUC(0-inf),"[10]; male, Ross 308, in vivo, po, 25 mg/kg, TIA oral bolus 25 mg/kg BW, chickens not pretreated with AFB1 (control feed for 2 weeks), n = 9, mean ± SD, read-out: AUCINF_obs, Control",357 ± 69.6 ng·h/mL
same,CL/F,"[10]; male, Ross 308, in vivo, po, 25 mg/kg, TIA oral bolus 25 mg/kg BW, chickens not pretreated with AFB1 (control feed for 2 weeks), n = 9, mean ± SD, read-out: CL_F_obs, Control (converted)",1200 mL/min/kg
same,Cmax,"[10]; male, Ross 308, in vivo, po, 25 mg/kg, TIA oral bolus 25 mg/kg BW, chickens not pretreated with AFB1 (control feed for 2 weeks), n = 9, mean ± SD, read-out: Cmax, Control",89.9 ± 45.9 ng/mL
same,MRT last,"[10]; male, Ross 308, in vivo, po, 25 mg/kg, TIA oral bolus 25 mg/kg BW, chickens not pretreated with AFB1 (control feed for 2 weeks), n = 9, mean ± SD, read-out: MRTlast, Control",6.8 ± 1.4 h
same,half-life,"[10]; male, Ross 308, in vivo, po, 25 mg/kg, TIA oral bolus 25 mg/kg BW, chickens not pretreated with AFB1 (control feed for 2 weeks), n = 9, mean ± SD, read-out: T1/2λz, Control (converted)",7 ± 2.9 h
same,Tmax,"[10]; male, Ross 308, in vivo, po, 25 mg/kg, TIA oral bolus 25 mg/kg BW, chickens not pretreated with AFB1 (control feed for 2 weeks), n = 9, mean ± SD, read-out: Tmax, Control",0.44 h
same,AUC(0-inf),"[10]; male, Ross 308, in vivo, po, 25 mg/kg, TIA oral bolus 25 mg/kg BW, chickens pretreated with AFB1 contaminated diet (20 µg/kg feed for 2 weeks), n = 8, mean ± SD, read-out: AUCINF_obs, Treatment",586 ± 174 ng·h/mL
same,CL/F,"[10]; male, Ross 308, in vivo, po, 25 mg/kg, TIA oral bolus 25 mg/kg BW, chickens pretreated with AFB1 contaminated diet (20 µg/kg feed for 2 weeks), n = 8, mean ± SD, read-out: CL_F_obs, Treatment (converted)",763 mL/min/kg
same,Cmax,"[10]; male, Ross 308, in vivo, po, 25 mg/kg, TIA oral bolus 25 mg/kg BW, chickens pretreated with AFB1 contaminated diet (20 µg/kg feed for 2 weeks), n = 8, mean ± SD, read-out: Cmax, Treatment",142 ± 65.4 ng/mL
same,MRT last,"[10]; male, Ross 308, in vivo, po, 25 mg/kg, TIA oral bolus 25 mg/kg BW, chickens pretreated with AFB1 contaminated diet (20 µg/kg feed for 2 weeks), n = 8, mean ± SD, read-out: MRTlast, Treatment",6.2 ± 1.8 h
same,half-life,"[10]; male, Ross 308, in vivo, po, 25 mg/kg, TIA oral bolus 25 mg/kg BW, chickens pretreated with AFB1 contaminated diet (20 µg/kg feed for 2 weeks), n = 8, mean ± SD, read-out: T1/2λz, Treatment (converted)",6.3 ± 2.2 h
same,Tmax,"[10]; male, Ross 308, in vivo, po, 25 mg/kg, TIA oral bolus 25 mg/kg BW, chickens pretreated with AFB1 contaminated diet (20 µg/kg feed for 2 weeks), n = 8, mean ± SD, read-out: Tmax, Treatment",1 ± 1.1 h
same,adverse health effects in broilers,[11],No significant adverse health effects
COc1cc(Cc2cnc(N)nc2N)cc(OC)c1OC [Trimethoprim],inhibitory effect on CYP2C8,[12],weak inhibitory effect
CCN1CCN(c2cc3c(cc2F)c(=O)c(C(=O)O)cn3C2CC2)CC1 [enrofloxacin],increase of AUC0–∞,[13],17%
same,increase of T1/2a,[13],17%
same,increase of Tmax,[13],26%
same,inhibition of CYP3A activity,[14],inhibit CYP3A activity
CCC[C@@H]1C[C@@H](C(=O)N[C@@H]([C@H]2O[C@H](SC)[C@H](O)[C@@H](O)[C@H]2O)[C@@H](C)O)N(C)C1 [lincomycin],"inhibition of CYP1A, CYP2A, CYP2C, CYP2B, CYP2E and CYP3A",[15],inhibits
